# In patent US9221809B2 (MERCK SHARP & DOHME CORP., priority 2011, dated 2015):
# pIC50: −log10 of the molar value. Structures can show the parent of a compound that is named as a salt.
# Molecular target: IRAK4 (Homo sapiens (Human), UniProt Q9NWZ3)
# Test: IRAK4 kinase activity, IMAP fluorescence polarization assay
# Format: biochemical
# Conditions: 100 μM ATP; read-out: IC50
# Method in brief: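 GST-tagged IRAK4 at 0.5 nM phosphorylates 100 nM fluorescent peptide substrate with 100 μM ATP in pH 7.2 Tris buffer containing MgCl2, DTT and Tween 20, 30 min at 25 °C. Reaction stopped with IMAP binding reagent; phosphorylation read as increased fluorescence polarization.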
# Chain of IRAK4 (Q9NWZ3 whole entry): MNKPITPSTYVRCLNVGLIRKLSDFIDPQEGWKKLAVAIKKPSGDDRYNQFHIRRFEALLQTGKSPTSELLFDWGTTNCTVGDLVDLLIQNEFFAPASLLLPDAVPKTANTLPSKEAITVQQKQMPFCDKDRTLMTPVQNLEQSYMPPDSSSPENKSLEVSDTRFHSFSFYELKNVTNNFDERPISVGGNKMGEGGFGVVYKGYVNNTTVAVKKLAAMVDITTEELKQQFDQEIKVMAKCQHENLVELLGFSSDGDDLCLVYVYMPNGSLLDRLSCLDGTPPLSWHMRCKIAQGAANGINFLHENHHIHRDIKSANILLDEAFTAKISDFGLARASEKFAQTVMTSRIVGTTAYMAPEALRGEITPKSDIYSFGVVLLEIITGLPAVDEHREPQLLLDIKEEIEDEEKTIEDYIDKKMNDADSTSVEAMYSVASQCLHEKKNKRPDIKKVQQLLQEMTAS
row,SMILES,pIC50
1,"O=c1[nH]c(N[C@@H]2c3ccccc3C[C@@H]2O)nc(N[C@@H]2CCCNC2)c1-c1nc2ccccc2s1 [Example 299, 5-(1,3-benzothiazol-2-yl)-2-[[(1R,2S)-2-hydroxy-2,3-dihydro-1H-inden-1-yl]amino]-6-[[(3R)-piperidin-3-yl]amino]pyrimidin-4-ol formic acid]",5.92
2,"O=c1[nH]c(N2CC3CCC(C2)O3)nc(N[C@@H]2CCCNC2)c1-c1nc2ccccc2s1 [Example 300, 5-(1,3-benzothiazol-2-yl)-2-[8-oxa-3-azabicyclo[3.2.1]octan-3-yl]-6-[[(3R)-piperidin-3-yl]amino]-3,4-dihydropyrimidin-4-one; trifluoroacetic acid]",7.37
3,"NC(=O)CNc1nc(N[C@@H]2CCCNC2)c(-c2nc3ccccc3s2)c(=O)[nH]1 [Example 302, (R)-2-(5-(benzo[d]thiazol-2-yl)-6-oxo-4-(piperidin-3-ylamino)-1,6-dihydropyrimidin-2-ylamino)acetamide bis(2,2,2-trifluoroacetate)]",5.64
4,"O=C1C[C@@H](Nc2nc(N[C@@H]3CCCNC3)c(-c3nc4ccccc4s3)c(=O)[nH]2)Cc2ccccc2N1 [Example 303, (S)-4-(5-(benzo[d]thiazol-2-yl)-6-oxo-4-((R)-piperidin-3-ylamino)-1,6-dihydropyrimidin-2-ylamino)-4,5-dihydro-1H-benzo[b]azepin-2(3H)-one]",5.23
5,"CN(Cc1ccccc1)c1nc(N[C@@H]2CCCNC2)c(-c2nc3ccccc3s2)c(=O)[nH]1 [Example 307, 5-(1,3-benzothiazol-2-yl)-2-[benzyl(methyl)amino]-6-[[(3R)-piperidin-3-yl]amino]-3,4-dihydropyrimidin-4-one dihydrocbloride]",6.51
6,"Cc1ccc2sc(-c3c(N[C@@H]4CCCNC4)nc(N4CCOCC4)[nH]c3=O)nc2c1 [Example 308, 5-(5-methyl-1,3-benzothiazol-2-yl)-2-(morpholin-4-yl)-6-[[(3R)-piperidin-3-yl]amino]-3,4-dihydropyrimidin-4-one; formic acid]",6.92
7,"O=c1[nH]c(N2CCCCC2)nc(N[C@@H]2CCCNC2)c1-c1nc2ccccc2s1 [Example 309, 5-(1,3-benzothiazol-2-yl)-2-(piperidin-1-yl)-6-[[(3R)-piperidin-3-yl]amino]-3,4-dihydropyrimidin-4-one hydrochloride]",7.15
8,"O=c1[nH]c(NCCO)nc(N[C@@H]2CCCNC2)c1-c1nc2ccccc2s1 [Example 311, 5-(1,3-benzothiazol-2-yl)-2-[(2-hydroxyethyl)amino]-6-[[(3R)-piperidin-3-yl]amino]-3,4-dihydropyrimidin-4-one; trifluoroacetic acid]",6.35
9,"O=c1[nH]c(N2CCC3CCCCC3C2)nc(N[C@@H]2CCCNC2)c1-c1nc2ccccc2s1 (stereo partly drawn) [Example 313, 5-(1,3-benzothiazol-2-yl)-(decahydroisoquinolin-2-yl)-6-[[(3R)piperidin-3-yl]amino]-3,4-dihydropyrimidin-4-one; trifluoroacetic acid]",6.48
10,O=c1[nH]c(N2CC[C@@H](O)C2)nc(N[C@@H]2CCCNC2)c1-c1nc2ccccc2s1 [Example 315],7.77
11,"CC1(c2ccc(Cl)cc2)CN(c2nc(N[C@@H]3CCCNC3)c(-c3nc4ccccc4s3)c(=O)[nH]2)CCO1 (stereo partly drawn) [Example 319, 5-(benzo[d]thiazol-2-yl)-2-(2-(4-chlorophenyl)-2-methylmorpholino)-6-((R)-piperidin-3-ylamino)pyrimidin-4(3H)-one hydrochloride]",5.60
12,"O=C(O)C1CN(c2nc(N[C@@H]3CCCNC3)c(-c3nc4ccccc4s3)c(=O)[nH]2)CCO1 (stereo partly drawn) [Example 320, 4-[5-(1,3-benzothiazol-2-yl)-6-oxo-4-[[(3R)-piperidin-3-yl]amino]-1,6-dihydropyrimidin-2-yl]morpholine-2-carboxylic acid]",6.60
13,"CCOC(=O)C1CN(c2nc(N[C@@H]3CCCNC3)c(-c3nc4ccccc4s3)c(=O)[nH]2)CCO1 (stereo partly drawn) [Example 321, ethyl 4-[5-(1,3-benzothiazol-2-yl)-6-oxo-4-[[(3R)-piperidin-3-yl]amino]-1,6-dihydropyrimidin-2-yl]morpholine-2-carboxylate; trifluoroacetic acid]",6.74
14,"NC1CCN(c2nc(N[C@@H]3CCCNC3)c(-c3nc4ccccc4s3)c(=O)[nH]2)CC1 [Example 322, 2-(4-aminopiperidin-1-yl)-5-(1,3-benzothiazol-2-yl)-6-[[(3R)-piperidin-3-yl]amino]-3,4-dihydropyrimidin-4-one; trifluoroacetic acid]",6.62
15,"O=C(NC1CCN(c2nc(N[C@@H]3CCCNC3)c(-c3nc4ccccc4s3)c(=O)[nH]2)CC1)OCc1ccccc1 [Example 323, Benzyl N-[1-[5-(1,3-benzothiazol-2-yl)-6-oxo-4-[[(3R)-piperidin-3-yl]amino]-1,6-dihydropyrimidin-2-yl]piperidin-4-yl]carbamate trifluoroacetic acid]",7.00
16,"O=c1[nH]c(N2CCC3(CCN(c4ncccn4)C3)C2)nc(N[C@@H]2CCCNC2)c1-c1nc2ccccc2s1 (stereo partly drawn) [Example 324, 5-(1,3-benzothiazol-2-yl)-6-[[(3R)-piperidin-3-yl]amino]-2-[7-(pyrimidin-2-yl)-2,7-diazaspiro[4.4]nonan-2-yl]-3,4-dihydropyrimidin-4-one trifluoroacetic acid]",7.92
17,"CN1CCC2(CCN(c3nc(N[C@@H]4CCCNC4)c(-c4nc5ccccc5s4)c(=O)[nH]3)C2)C1 (stereo partly drawn) [Example 325, 5-(1,3-benzothiazol-2-yl)-2-[7-methyl-2,7-diazaspiro[4.4]nonan-2-yl]-6-[[(3R)-piperidin-3-yl]amino]-3,4-dihydropyrimidin-4-one]",7.62
18,"CC(=O)N1CCC2(CCN(c3nc(N[C@@H]4CCCNC4)c(-c4nc5ccccc5s4)c(=O)[nH]3)C2)C1 (stereo partly drawn) [Example 326, 2-[7-acetyl-2,7-diazaspiro[4.4]nonan-2-yl]-5-(1,3-benzothiazol-2-yl)-6-[[(3R)-piperidin-3-yl]amino]-3,4-dihydropyrimidin-4-one]",7.89

# Further molecules by rising pIC50, results first:
row,pIC50,SMILES
1,5.05,O=C1C[C@H](Nc2nc(N[C@@H]3CCCNC3)c(-c3nc4ccccc4s3)c(=O)[nH]2)Cc2ccccc2N1 [Example 304]
2,6.35,"CC(=O)N1CCN(c2nc(N[C@@H]3CCCNC3)c(-c3nc4ccccc4s3)c(=O)[nH]2)CC1 [Example 316, 2-(4-acetylpiperazin-1-yl)-5-(1,3-benzothiazol-2-yl)-6-[[(3R)-piperidin-3-yl]amino]-3,4-dihydropyrimidin-4-one]"
3,6.41,"CN(c1nc(NC2CCCNC2)c(-c2nc3ccccc3s2)c(=O)[nH]1)[C@H]1CC[C@H](O)CC1 (stereo partly drawn) [Example 301, 5-(1,3-benzothiazol-2-yl)-2-[(4-hydroxycyclohexyl)(methyl)amino]-6-[[(3R)-piperidin-3-yl]amino]-3,4-dihydropyrimidin-4-one; trifluoroacetic acid]"
4,6.55,CC1CCCCN1c1nc(N[C@@H]2CCCNC2)c(-c2nc3ccccc3s2)c(=O)[nH]1 (stereo partly shown) [Example 314]
5,6.60,"CN(c1nc(N[C@@H]2CCCNC2)c(-c2nc3ccccc3s2)c(=O)[nH]1)[C@H](CO)c1ccccc1 [Example 310, 5-(1,3-benzothiazol-2-yl)-2-[[(1S)-2-hydroxy-1-phenylethyl](methyl)amino]-6-[[(3R)-piperidin-3-yl]amino]-3,4-dihydropyrimidin-4-one; trifluoroacetic acid]"
6,7.11,O=c1[nH]c(N2CCC(F)(F)CC2)nc(N[C@@H]2CCCNC2)c1-c1nc2ccccc2s1 [Example 312]
7,7.13,"NC(=O)C1CCN(c2nc(N[C@@H]3CCCNC3)c(-c3nc4ccccc4s3)c(=O)[nH]2)CC1 [Example 318, 1-[5-(1,3-benzothiazol-2-yl)-6-oxo-4-[[(3R)-piperidin-3-yl]amino]-1,6-dihydropyrimidin-2-yl]piperidine-4-carboxamide hydrochloride]"
8,7.21,"O=c1[nH]c(N2CCC(CO)CC2)nc(N[C@@H]2CCCNC2)c1-c1nc2ccccc2s1 [Example 305, 5-(1,3-benzothiazol-2-yl)-2-[4-(hydroxymethyl)piperidin-1-yl]-6-[[(3R)-piperidin-3-yl]amino]-3,4-dihydropyrimidin-4-one]"
9,7.57,"O=c1[nH]c(N2CCC3(CCN(Cc4ccccc4)C3)C2)nc(N[C@@H]2CCCNC2)c1-c1nc2ccccc2s1 (stereo partly drawn) [Example 327, 5-(1,3-benzothiazol-2-yl)-2-[7-benzyl-2,7-diazaspiro[4.4]nonan-2-yl]-6-[[(3R)-piperidin-3-yl]amino]-3,4-dihydropyrimidin-4-one; trifluoroacetic acid]"
10,7.60,"O=c1[nH]c(N2CC3(COC3)C2)nc(N[C@@H]2CCCNC2)c1-c1nc2ccccc2s1 [Example 317, 5-(1,3-benzothiazol-2-yl)-2-[2-oxa-6-azaspiro[3.3]heptan-6-yl]-6-[[(3R)-piperidin-3-yl]amino]-3,4-dihydropyrimidin-4-one]"
11,7.64,"O=c1[nH]c(N2CC[C@H](O)C2)nc(N[C@@H]2CCCNC2)c1-c1nc2ccccc2s1 [Example 306, 5-(benzo[d]thiazol-2-yl)-2-((S)-3-hydroxy-pyrrolidin-1-yl)-6-((R)-piperidin-3-ylamino)pyrimidin-4(3H)-one bis(2,2,2-trifluoro-acetate)]"
12,7.64,O=c1[nH]c(N2CCC3(CCN(S(=O)(=O)c4ccccc4)C3)C2)nc(N[C@@H]2CCCNC2)c1-c1nc2ccccc2s1 (stereo partly shown) [Example 328]
13,7.68,"COc1ccc(N2CCC3(CCN(c4nc(N[C@@H]5CCCNC5)c(-c5nc6ccccc6s5)c(=O)[nH]4)C3)C2)cc1 (stereo partly drawn) [Example 330, 5-(1,3-benzothiazol-2-yl)-2-[7-(4-methoxyphenyl)-2,7-diazaspiro[4.4]nonan-2-yl]-6-[[(3R)-piperidin-3-yl]amino]-3,4-dihydropyrimidin-4-one]"
